Structures can show the parent of a compound that is named as a salt. A value given as a limit tells only on which side of the number the result lay.

Format in all cases: biochemical
For assay [1], the target named is T1, MAO-A (Homo sapiens, UniProt P21397).
T1 construct: purchased Sigma-Aldrich Co. LLC
T1 sequence (P21397 1-527): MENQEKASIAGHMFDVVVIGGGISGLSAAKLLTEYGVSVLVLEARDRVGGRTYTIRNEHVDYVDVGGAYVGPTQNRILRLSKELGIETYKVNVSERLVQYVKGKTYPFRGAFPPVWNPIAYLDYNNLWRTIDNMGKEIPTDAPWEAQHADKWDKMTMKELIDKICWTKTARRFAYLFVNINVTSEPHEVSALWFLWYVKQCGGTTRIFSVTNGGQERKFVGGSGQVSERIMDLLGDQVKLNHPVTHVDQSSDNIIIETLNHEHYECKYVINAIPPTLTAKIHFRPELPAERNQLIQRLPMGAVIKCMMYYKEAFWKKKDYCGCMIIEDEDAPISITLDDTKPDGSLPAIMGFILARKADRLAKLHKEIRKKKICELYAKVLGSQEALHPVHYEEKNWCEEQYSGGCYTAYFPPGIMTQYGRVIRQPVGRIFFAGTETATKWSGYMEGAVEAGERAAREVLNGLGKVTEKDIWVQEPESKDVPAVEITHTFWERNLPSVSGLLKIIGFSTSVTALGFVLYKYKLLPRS
In words: Measurement of MAO-A inhibitory activity (MAO-Glo Assay). The essentials:
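Luminescent MAO-Glo read-out: % inhibition computed from counts relative to enzyme-only control and enzyme-free blank. Compound and 400 ng MAO-A in HEPES pH 7.5 with 5% glycerol stood 10 min at room temperature before MAO substrate (160 μM stock) started a 60 min reaction.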

The target of assay [2] is T2, human LSD1(171-852) (Homo sapiens, UniProt O60341).
T2 construct: to give hLSD1(171-852) purified product; made in house; host or cells: Escherichia coli C43(DE3) pLysS
The experiment in a line: Measurement of LSD1 inhibitory activity (time-resolved fluorescence, biotin-histone H3 mono methylated K4 peptide). Particulars: read-out: LSD1 IC50 value.

Assay [3] has as its target T3, MAO-B (Homo sapiens, UniProt P27338).
T3 construct: purchased Sigma-Aldrich Co. LLC
T3 sequence (P27338 1-520): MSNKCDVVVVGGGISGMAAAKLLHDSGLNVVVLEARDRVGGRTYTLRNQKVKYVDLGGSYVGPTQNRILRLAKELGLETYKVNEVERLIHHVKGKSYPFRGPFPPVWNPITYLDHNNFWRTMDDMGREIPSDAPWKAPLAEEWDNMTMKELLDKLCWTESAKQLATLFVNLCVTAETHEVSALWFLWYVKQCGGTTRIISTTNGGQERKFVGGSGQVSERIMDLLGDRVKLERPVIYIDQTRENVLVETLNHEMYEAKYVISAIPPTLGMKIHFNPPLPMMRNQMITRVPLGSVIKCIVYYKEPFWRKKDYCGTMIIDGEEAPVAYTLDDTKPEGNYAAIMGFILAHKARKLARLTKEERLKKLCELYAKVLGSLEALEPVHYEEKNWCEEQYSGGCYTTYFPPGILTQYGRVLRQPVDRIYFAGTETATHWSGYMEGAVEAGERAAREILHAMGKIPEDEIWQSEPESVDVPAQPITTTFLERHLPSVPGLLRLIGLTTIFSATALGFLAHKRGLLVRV
The experiment in a line: Measurement of MAO-B inhibitory activity (MAO-Glo Assay). The essentials:
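Percent inhibition was calculated from luciferin-based luminescence, corrected with a blank lacking enzyme and a control lacking compound. The reaction ran 60 min at room temperature after adding MAO substrate (16 µM as added). This followed a 10 min compound–enzyme preincubation in HEPES pH 7.5 buffer.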

The term IC50 denotes the point on the concentration scale where inhibition reaches its midpoint. Turning to `COCC(C)N[C@@H]1C[C@H]1c1ccc(NC(=O)c2ccc(-c3ccccc3)cc2)cc1` (relative stereo) [Example 48, N-(4-{trans-2-[(2-methoxy-1-methyl-ethyl)amino]cyclo-propyl}phenyl)-biphenyl-4-carboxamide], the values for the IC50 in assay [1], in assay [2] and in assay [3] were 4.3 µM, under 100 nM and 3.8 µM, respectively.

For the molecule `CCC(CC)N[C@@H]1C[C@H]1c1ccc(NC(=O)c2ccc(-c3ccccc3)cc2)cc1` (relative stereo) [Example 49, N-(4-{trans-2-[(1-ethylpropyl)amino]-cyclopropyl}phenyl)-biphenyl-4-carboxamide], the figures for the IC50 in assay [1], in assay [2] and in assay [3] were over 10 µM, under 100 nM and over 10 µM, respectively.

As for `CN1CCC(N[C@@H]2C[C@H]2c2ccc(NC(=O)c3ccc(-c4ccccc4)cc3)cc2)CC1` (relative stereo) [Example 50, N-(4-{trans-2-[(1-methylpiperidin-4-yl)amino]cyclo-propyl}phenyl)-biphenyl-4-carboxamide], the IC50 is over 10 µM in assay [1], under 100 nM in assay [2] and over 10 µM in assay [3].

As for `O=C(Nc1ccc([C@@H]2C[C@H]2NC2CCN(Cc3ccccc3)CC2)cc1)c1ccc(-c2ccccc2)cc1` (relative stereo) [Example 51, N-(4-{trans-2-[(1-benzylpiperidin-4-yl)amino]cyclo-propyl}phenyl)-biphenyl-4-carboxamide], the results for the IC50 in assay [1], in assay [2] and in assay [3] were over 10 µM, 100 nM and over 10 µM, respectively.

Regarding `O=C(Nc1ccc([C@@H]2C[C@H]2NCCOCc2ccccc2)cc1)c1ccc(-c2ccccc2)cc1` (relative stereo) [Example 52, N-{4-[trans-2-{[2-(benzyloxy)ethyl]-amino}cyclopropyl]-phenyl}biphenyl-4-carboxamide], the IC50 in assay [1] was over 10 µM; in assay [2], 160 nM; in assay [3] it was over 10 µM.

Take `O=C(Nc1ccc([C@@H]2C[C@H]2NCc2ccc(Cl)c(Cl)c2)cc1)c1ccc(-c2ccccc2)cc1` (relative stereo) [Example 53, N-(4-{trans-2-[(3,4-dichloro-benzyl)amino]-cyclopropyl}phenyl)-biphenyl-4-carboxamide]: the figures for the 50% inhibitory concentration (IC50) in assay [1], in assay [2] and in assay [3] were 4 µM, 230 nM and 3.4 µM, respectively.

Take `COc1ccc(CN[C@@H]2C[C@H]2c2ccc(NC(=O)c3ccc(-c4ccccc4)cc3)cc2)cn1` (relative stereo) [Example 54]: the IC50 in assay [1] was 0.85 µM; in assay [2], under 100 nM; in assay [3] it was 1.5 µM.

As for `C=CCOC(=O)N1CCC(N[C@@H]2C[C@H]2c2ccc(NC(=O)c3ccc(-c4ccccc4)cc3)cc2)CC1` (relative stereo) [Example 55, allyl 4-{[trans-2-{4-[(biphenyl-4-yl-carbonyl)amino]-phenyl}cyclo-propyl]amino}-piperidine-1-carboxylate], the IC50 in assay [1] was over 10 µM; in assay [2], 130 nM; in assay [3], over 10 µM.

For the molecule `CC(COc1ccccc1)N[C@@H]1C[C@H]1c1ccc(NC(=O)c2ccc(-c3ccccc3)cc2)cc1` (relative stereo) [Example 56, N-(4-{trans-2-[(1-methyl-2-phenoxyethyl)-amino]cyclo-propyl}phenyl)-biphenyl-4-carboxamide], the figures for the IC50 in assay [1], in assay [2] and in assay [3] were over 10 µM, 260 nM and over 10 µM, respectively.

Turning to `O=C(Nc1ccc([C@@H]2C[C@H]2N(CC2CC2)CC2CC2)cc1)c1ccc(-c2ccccc2)cc1` (relative stereo) [Example 60, N-(4-{trans-2-[bis(cyclopropylmethyl)amino]cyclopropyl}phenyl)biphenyl-4-carboxamide hydrochloride], the IC50 was over 10 µM in assay [1], 1900 nM in assay [2] and over 10 µM in assay [3].

For the molecule `O=C(Nc1ccc([C@@H]2C[C@H]2NC2CCOCC2)cc1)c1ccc(-c2ccccc2)cc1` (relative stereo) [Example 61, N-{4-[trans-2-(tetrahydro-2H-pyran-4-ylamino)cyclopropyl]phenyl}biphenyl-4-carboxamide hydrochloride], the IC50 in assay [1] was 2.2 µM; in assay [2], under 100 nM; in assay [3], 3.3 µM.

Turning to `CC(=O)N1CCC(N[C@@H]2C[C@H]2c2ccc(NC(=O)c3ccc(-c4ccccc4)cc3)cc2)CC1` (relative stereo) [Example 62, N-(4-{trans-2-[(1-acetylpiperidin-4-yl)amino]cyclopropyl}phenyl)biphenyl-4-carboxamide hydrochloride], the IC50 in assay [1] is over 10 µM; in assay [2], under 100 nM; in assay [3] it was over 10 µM.

As to `O=C(Nc1ccc([C@@H]2C[C@H]2NC2CCN(CC(F)(F)F)CC2)cc1)c1ccc(-c2ccccc2)cc1` (relative stereo) [Example 63, N-{4-[trans-2-{[1-(2,2,2-trifluoroethyl)piperidin-4-yl]amino}cyclopropyl]phenyl}biphenyl-4-carboxamide hydrochloride], the IC50 in assay [1] is over 10 µM; in assay [2] it was under 100 nM; in assay [3], over 10 µM.

With `CN(C(=O)c1ccc(-c2ccccc2)cc1)c1ccc([C@@H]2C[C@H]2NCC2CC2)cc1` (relative stereo) [Example 64, N-(4-{trans-2-[(cyclopropylmethyl)amino]cyclopropyl}phenyl)-N-methylbiphenyl-4-carboxamide hydrochloride], the IC50 was 8.5 µM in assay [1], 200 nM in assay [2] and over 10 µM in assay [3].

Consider `O=C(Nc1ccc([C@@H]2C[C@H]2NCC2CC2)cc1)c1cccc(C(F)(F)F)c1` (relative stereo) [Example 65, N-(4-{trans-2-[(cyclopropylmethyl)amino]cyclopropyl}phenyl)-3-(trifluoromethyl)benzamide hydrochloride], for which the figures for the IC50 in assay [1], in assay [2] and in assay [3] were 8.6 µM, under 100 nM and 9.6 µM, respectively.

Consider `O=C(Nc1ccc([C@@H]2C[C@H]2NCc2c[nH]cn2)cc1)c1ccc(-c2ccccc2)cc1` (relative stereo) [Example 66, N-(4-{trans-2-[(1H-imidazol-4-ylmethyl)amino]cyclopropyl}phenyl)biphenyl-4-carboxamide dihydrochloride], for which the values for the IC50 in assay [1], in assay [2] and in assay [3] were over 10 µM, under 100 nM and over 10 µM, respectively.

As to `O=C(Nc1ccc([C@@H]2C[C@H]2NCc2ccccc2F)cc1)c1cccc(C(F)(F)F)c1` (relative stereo) [Example 67, N-(4-{trans-2-[(2-fluorobenzyl)amino]cyclopropyl}phenyl)-3-(trifluoromethyl)benzamide hydrochloride], the IC50 is over 10 µM in assay [1], under 100 nM in assay [2] and over 10 µM in assay [3].

In the case of `Cc1ccc(C(=O)Nc2ccc([C@@H]3C[C@H]3NCC3CC3)cc2)cc1` (relative stereo) [Example 68, N-(4-{trans-2-[(cyclopropylmethyl)amino]cyclopropyl}phenyl)-4-methylbenzamide hydrochloride], the IC50 is over 10 µM in assay [1], under 100 nM in assay [2] and over 10 µM in assay [3].

For the molecule `O=C(Nc1ccc([C@@H]2C[C@H]2NCC2CC2)cc1)c1ccc(C(F)(F)F)cc1` (relative stereo) [Example 69, N-(4-{trans-2-[(cyclopropylmethyl)amino]cyclopropyl}phenyl)-4-(trifluoromethyl)benzamide hydrochloride], the results for the IC50 in assay [1], in assay [2] and in assay [3] were over 10 µM, under 100 nM and over 10 µM, respectively.

Take `CC(C)(C)c1ccc(C(=O)Nc2ccc([C@@H]3C[C@H]3NCC3CC3)cc2)cc1` (relative stereo) [Example 70, 4-tert-butyl-N-(4-{trans-2-[(cyclopropylmethyl)amino]cyclopropyl}phenyl)benzamide hydrochloride]: the values for the IC50 in assay [1], in assay [2] and in assay [3] were over 10 µM, under 100 nM and over 10 µM, respectively.

(Values after US9682925B2, “Cyclopropaneamine compound” (TAKEDA PHARMACEUTICAL COMPANY LIMITED, priority 2011, dated 2017).)
